Results published in patent US12274680B2, “Treatment of benign prostatic hypertrophy with capsinoids” (priority 2022, dated 2025).

Legend:
[1] = system: bladder outlet obstruction (BOO) due to benign prostatic hypertrophy (BPH); assay: Case observation of one patient with BOO due to BPH (self-catheterization frequency, urine flow, PSA, prostate size); format: in vivo
Description: A patient suffering from BOO due to BPH was experiencing increasing symptoms of BOO from 2018 to 2022 in addition to increasing levels of prostate specific antigen (PSA). This patient preferred the occasional self-catheterization to surgical treatment of the BPH. From 2018 to 2021 the self-catheterization frequency associated with 8 mg of silodosin (an alpha-1 antagonist/blocker) orally daily was about once every 6 months. […] By January 2022, the self-catheterization was weekly. The patient commented that most of the times self-catheterization was necessary, followed a decreased intake of spicy foods, which were an almost daily ingestion for this patient. The patient was instructed to ingest 40,000 SHU (Scoville Heat Units) daily in the form of a cayenne nutraceutical capsule obtained over the counter (OTC) at a pharmacy. The cayenne capsule is a powder of ground chili pepper with a claimed total capsinoid activity of 40,000 SHU resulting from the mixture of capsinoid chemicals in the pepper. […] These clinical findings are consistent with the dramatic improvement in BOO following treatment with oral capsinoids.

BPH = settings: longer term studies; cited from earlier work

Row | Structure (SMILES) | adverse event ([1]; silodosin 8 mg orally daily, led to dose decrease to 4 mg) | self-catheterization frequency ([1]; silodosin dose decreased to 4 mg, by January 2022) | urinary flow rates and subjective symptom scores (BPH)
1 | C[C@H](Cc1cc2c(c(C(N)=O)c1)N(CCCO)CC2)NCCOc1ccccc1OCC(F)(F)F [silodosin] | severe cardiovascular adverse event | weekly | –
2 | COc1cc2nc(N3CCN(C(=O)C4COc5ccccc5O4)CC3)nc(N)c2cc1OC (stereo not drawn) [doxazosin] | – | – | significant improvements
3 | COc1cc2nc(N3CCN(C(=O)C4CCCO4)CC3)nc(N)c2cc1OC (stereo not drawn) [terazosin] | – | – | significant improvements
4 | O=C(NC1CCN(CCc2c[nH]c3ccccc23)CC1)c1ccccc1 [indoramin] | – | – | significant improvements
5 | COc1cc2nc(N3CCN(C(=O)c4ccco4)CC3)nc(N)c2cc1OC [prazosin] | – | – | significant improvements
